These results are taken from paper PMC6027665, “Synthesis and Cytotoxicity Evaluation of Novel Asymmetrical Mono-Carbonyl Analogs of Curcumin (AMACs) against Vero, HeLa, and MCF7 Cell Lines” (Scientia Pharmaceutica, 2018).

Data set [1] concerns Vero cell lines (ATCC CCL-81). Kind of data set: MTT proliferation assay, Vero cell lines (normal cells). The data set is classed as cell-based, African green monkey. Conditions: 48 h incubation, mean ± SD (n = 3). The procedure:
(§1) The cytotoxic activity of the synthesized compounds was evaluated against human cervix carcinoma (HeLa, ATCC CCL-2) cell lines, human estrogen-dependent breast carcinoma (MCF7, ATCC HTB-22) cell lines, and kidney of an African green monkey (Vero, ATCC CCL-81) as a normal cell lines using the methyl thiazolyl tetrazolium (MTT) method conducted according to the MTT assay protocol published by the American Type Culture Collection (ATCC). Cisplatin was used as a reference drug. Curcumin was also evaluated as a comparative compound on the tests against Vero and MCF7 cell lines, and doxorubicin was evaluated as an additional comparator on the test against MCF7 cell lines. The assay detects the reduction of yellow tetrazolium (MTT) by metabolically active cells to be purple formazan measured using spectrophotometry.
(§2) The cells lines were seeded into 96-well plates at a density of 5000 cells per well, replenished with growth media consisting of Dulbecco’s Modified Eagle’s medium (D-MEM) for Vero or Roswell Park Memorial Institute (RPMI) 1640 medium for MCF7 and HeLa, 5% Fetal Bovine Serum (FBS), 100 U/mL penicillin, and 100 μg/mL streptomycin. The cells were incubated at 37 °C in 5% CO2 for 24 h. Then, a series concentrations of the tested compounds (1.5, 3.1, 6.2, 12.5, 25.0, 50.0, 100.0, and 200.0 µg/mL) were added to each well of the plate and incubated for 48 h. After that, 10 μL fresh solution of MTT reagent was added to each well, and the plate was incubated in a CO2 incubator at 37 °C for 4 h. After the purple precipitate was obtained, the cells were dissolved in ethanol and their optical density was recorded at 595 nm. The experiment was performed in triplicate. Percent proliferation inhibition was calculated using the following formula: Viability cells inhibition (%)=100−[(At−Ab)/(Ac−Ab)] ×100%
(§3) At = absorption of test compound, Ab = absorption of blank, Ac = absorption of control.
(§4) The concentration of the synthesized compounds required to inhibit 50% of the growth of the cell lines (IC50 values) was calculated by analyzing the relationship between concentrations and percent (%) inhibitions using GraphPad Prism 7 version 7.00 for Windows, GraphPad Software, La Jolla, CA, USA, www.graphpad.com.

Data set [2] has as its system HeLa cell lines (human cervix carcinoma, ATCC CCL-2). Description: MTT proliferation assay, HeLa cell lines. The data set is classed as cell-based. Conditions: 48 h incubation, mean ± SD (n = 3). As to the method:
as §1, §2, §3, §4

Data set [3] has as its system MCF7 cell lines (human estrogen-dependent breast carcinoma, ATCC HTB-22). Kind of data set: MTT proliferation assay, MCF7 cell lines. The data set is classed as cell-based. As to the method: as §1, §2, §3, §4
The subject of data set [4] is HeLa cell lines (human cervix carcinoma, ATCC CCL-2). Also on record: method as in doi:10.1016/j.toxlet.2016.06.1915. Conditions: value of an earlier study; cited from earlier work.
Data set [5] is described as follows: Brine shrimp lethality test (BSLT). The data set is classed as in vivo. Conditions: Artemia salina (brine shrimp) larvae, in vivo, other: compound diluted in the seawater holding the larvae; brine shrimp larvae, 24 h, triplicate. As to the method:
(§5) The assay was carried out according to the principle and protocol previously described by Meyer, with slight modification. Artemia salina L. eggs were inserted into a box containing seawater; the box was placed under UV lamp, and after 48 h the eggs hatched into larvae and ready for the test. The compounds (1a–1e, 2a–2e) were diluted in 10 mL seawater containing 10 larvae (1% DMSO (v/v)) until concentrations 20, 200, 500, and 1000 ppm were reached. After 24 h, the live and dead shrimp were counted. The mortality rate (%) was obtained by comparing the number of total dead larvae and the total number of larvae. The experiment was conducted in triplicate. The concentrations (dose)-response (% mortality) data were transformed into a straight line using a logit transformation, and the concentration required to kill 50% of the population (LC50 values) was derived from the best fit line obtained by linear regression analysis.

Another data set concerns Artemia salina L. larvae. Description: Brine shrimp lethality test (BSLT). The data set is classed as in vivo. Conditions: Artemia salina, read-out: BSLT toxicity level. As to the method: as §5
The mark [6] stands for this setting: Homo sapiens, MCF7, 48 h incubation, mean ± SD (n = 3), read-out: IC50 (µM) MCF7.

The structures appear in SMILES notation. ≈ marks a conversion by molar mass, not a printed value. Like-named read-outs stand apart in the source and are kept apart here.

The term IC50 denotes the concentration needed to halve the response being measured. In the case of `N.N.[Cl][Pt][Cl]` [Cisplatin, reference compound], the IC50 is 84.7 ± 2.09 µM in data set [1]; 67.6 ± 2.04 µM in data set [2]; 12.8 ± 1.35 µM in data set [3] (48 h incubation, mean ± SD (n = 3), read-out: IC50 (µM) MCF7); 12.3 µM in data set [4].

Take `COc1cc(/C=C2\CCC/C(=C\c3ccccc3)C2=O)ccc1O` [Compound 1a, (2E,6E)-2-[(4-hydroxy-3-methoxyphenyl)methylidene]-6-(phenylmethylidene)cyclohexan-1-one]: the LC50 at 24 h in data set [5] came to 197 µM. In addition, in the data set with Artemia salina L. larvae, the LC50 was 30 to 100 µg/mL (≈ 93.6 to 312 µM). The IC50 in data set [1] (Chlorocebus sabaeus, Vero) is 13.98 ± 0.04 µM; in data set [2] (Homo sapiens), above 100 µM; in data set [3] (setting [6]), above 100 µM.

As for `COc1ccc(/C=C2\CCC/C(=C\c3ccc(O)c(OC)c3)C2=O)cc1` [Compound 1b, (2E,6E)-2-[(4-hydroxy-3-methoxyphenyl)methylidene]-6-[(4-methoxyphenyl)methylidene] cyclohexan-1-one], in data set [5], the LC50 at 24 h was 323 µM. Also, in the data set with Artemia salina L. larvae, the LC50 was in the range of 100 to 1000 µg/mL (≈ 285 to 2850 µM). Besides, the half-maximal inhibitory concentration (IC50) stood at 15.4 ± 0.34 µM in data set [1] (Chlorocebus sabaeus, Vero); 95.5 ± 7.19 µM in data set [2] (Homo sapiens); 7.86 ± 1.05 µM in data set [3] (setting [6]); 2.75 µg/mL in data set [3] (Homo sapiens, MCF7, same value in µg/mL, read-out: IC50 MCF7).

With `COc1cc(/C=C2\CCC/C(=C\c3ccc(F)cc3)C2=O)ccc1O` [Compound 1c, (2E,6E)-2-[(4-hydroxy-3-methoxyphenyl)methylidene]-6-[(4-fluorophenyl)methylidene] cyclohexan-1-one], in data set [5], the LC50 at 24 h came to 177 µM. Moreover, the LC50 with Artemia salina L. larvae lay within 30 to 100 µg/mL (≈ 88.7 to 296 µM). For the same compound, the 50% inhibitory concentration (IC50) in data set [1] (Chlorocebus sabaeus, Vero) came to 13.4 ± 0.39 µM; in data set [2] (Homo sapiens) it was 49.1 ± 1.17 µM; in data set [3] (setting [6]), 10.9 ± 0.79 µM.

The compound `COc1cc(/C=C2\CCC/C(=C\c3ccc(Cl)cc3)C2=O)ccc1O` [Compound 1d, (2E,6E)-2-[(4-hydroxy-3-methoxyphenyl)methylidene]-6-[(4-chlorophenyl)methylidene] cyclohexan-1-one] had an LC50 at 24 h in data set [5] of 204 µM. In addition, the LC50 in the data set with Artemia salina L. larvae lay in the range of 30 to 100 µg/mL (≈ 84.5 to 282 µM). For the same compound, the IC50 in data set [1] (Chlorocebus sabaeus, Vero) turned out to be 14.1 ± 0.18 µM; in data set [2] (Homo sapiens), 55.6 ± 1.49 µM; in data set [3] (setting [6]), 35.9 ± 4.57 µM.

Consider `COc1cc(/C=C2\CCC/C(=C\c3ccc(C)cc3)C2=O)ccc1O` [Compound 1e, (2E,6E)-2-[(4-hydroxy-3-methoxyphenyl)methylidene]-6-[(4-methylphenyl)methylidene] cyclohexan-1-one], for which the LC50 at 24 h in data set [5] worked out at 78.7 µM. The LC50 in the data set with Artemia salina L. larvae was below 30 µg/mL. Besides, the half-inhibitory concentration (IC50) in data set [1] (Chlorocebus sabaeus, Vero) came to 16.1 ± 0.18 µM; in data set [2] (Homo sapiens) it was 61.2 ± 2.86 µM; in data set [3] (setting [6]), 10.4 ± 0.36 µM.

`CCN(CC)Cc1cc(/C=C2\CCC/C(=C\c3ccccc3)C2=O)cc(OC)c1O` [Compound 2a, (2E,6E)-2-({3-[(diethylamino)methyl]-4-hydroxy-5-methoxyphenyl}methylidene)-6-(phenylmethylidene)cyclohexan-1-one]: in data set [5], the LC50 at 24 h worked out at 921 µM. Further, the LC50 in the data set on Artemia salina L. larvae is 100 to 1000 µg/mL (≈ 247 to 2470 µM). Besides, the IC50 is 4.14 ± 0.21 µM in data set [1] (Chlorocebus sabaeus, Vero) and 46.6 ± 1.54 µM in data set [2] (Homo sapiens).

Compound `CCN(CC)Cc1cc(/C=C2\CCC/C(=C\c3ccc(OC)cc3)C2=O)cc(OC)c1O` [Compound 2b, (2E,6E)-2-({3-[(diethylamino)methyl]-4-hydroxy-5-methoxyphenyl}methylidene)-6-[(4-methoxyphenyl)methylidene]cyclohexan-1-one] gave an LC50 at 24 h in data set [5] of 80.2 µM. Besides, the LC50 with Artemia salina L. larvae was 30 to 100 µg/mL (≈ 68.9 to 230 µM). For the same compound, the IC50 in data set [1] (Chlorocebus sabaeus, Vero) was 7.29 ± 0.12 µM; in data set [2] (Homo sapiens), 69.3 ± 3.17 µM.

Regarding `CCN(CC)Cc1cc(/C=C2\CCC/C(=C\c3ccc(F)cc3)C2=O)cc(OC)c1O` [Compound 2c, (2E,6E)-2-({3-[(diethylamino)methyl]-4-hydroxy-5-methoxyphenyl}methylidene)-6-[(4-fluorophenyl)methylidene]cyclohexan-1-one], the LC50 at 24 h in data set [5] stood at 88.4 µM. For the same compound, the LC50 in the data set on Artemia salina L. larvae is 30 to 100 µg/mL (≈ 70.8 to 236 µM). Also, the IC50 worked out at 4.23 ± 0.32 µM in data set [1] (Chlorocebus sabaeus, Vero) and 41.1 ± 0.16 µM in data set [2] (Homo sapiens).

With `CCN(CC)Cc1cc(/C=C2\CCC/C(=C\c3ccc(Cl)cc3)C2=O)cc(OC)c1O` [Compound 2d, (2E,6E)-2-({3-[(diethylamino)methyl]-4-hydroxy-5-methoxyphenyl}methylidene)-6-[(4-chlorophenyl)methylidene]cyclohexan-1-one], the LC50 at 24 h in data set [5] worked out at 29.8 µM. For the same compound, in the data set with Artemia salina L. larvae, the LC50 is below 30 µg/mL. For the same compound, the concentration for half-maximal inhibition (IC50) was 3.94 ± 0.07 µM in data set [1] (Chlorocebus sabaeus, Vero) and 40.6 ± 0.98 µM in data set [2] (Homo sapiens).

`CCN(CC)Cc1cc(/C=C2\CCC/C(=C\c3ccc(C)cc3)C2=O)cc(OC)c1O` [Compound 2e, (2E,6E)-2-({3-[(diethylamino)methyl]-4-hydroxy-5-methoxyphenyl}methylidene)-6-[(4-methylphenyl)methylidene]cyclohexan-1-one]: in data set [5], the LC50 at 24 h was 1700 µM. For the same compound, the LC50 with Artemia salina L. larvae was in the range of 100 to 1000 µg/mL (≈ 238 to 2380 µM). The half-inhibitory concentration (IC50) in data set [1] (Chlorocebus sabaeus, Vero) is 15.02 ± 0.14 µM; in data set [2] (Homo sapiens), 76.6 ± 4.27 µM; in data set [3] (setting [6]) it was 14.6 ± 1.96 µM.

Regarding `COc1cc(/C=C/C(=O)CC(=O)/C=C/c2ccc(O)c(OC)c2)ccc1O` [Curcumin], the IC50 in data set [1] (Chlorocebus sabaeus, Vero) was 31.4 ± 0.41 µM; in data set [3] (setting [6]) it was 10.5 ± 1.1 µM.

As for `COc1cccc2c1C(=O)c1c(O)c3c(c(O)c1C2=O)C[C@@](O)(C(=O)CO)C[C@@H]3O[C@H]1C[C@H](N)[C@H](O)[C@H](C)O1` [Doxorubicin, reference compound], in data set [3] (setting [6]), the IC50 is below 2.94 µM.
